Measurements taken from ChEMBL document CHEMBL2417447, “Synthesis and binary QSAR study of antitubercular quinolylhydrazides” (2013).
Converted amounts (≈) assume the structure as drawn.

Columns and labels:
[1] = system: Mycobacterium tuberculosis; assay: Antitubercular activity against Mycobacterium tuberculosis H37Rv ATCC 27294 after 5 to 8 days by microplate alamar blue assay; type: functional
[2] = system: Mycobacterium tuberculosis; assay: Antimycobacterial activity against Mycobacterium tuberculosis H37Rv ATCC 27294 assessed as growth inhibition at 6.25 ug/ml after 5 to 8 days by microplate alamar blue assay relative to control; type: functional; settings: read-out: GI

## CC(=O)c1ccc(N/N=C2\C(=O)Nc3cc(Cl)ccc3C2=O)cc1
[1]
  MIC: > 6.25 µg/mL
[2]
  inhibition of growth at 6.25 µg/mL: 6%

## O=C1Nc2c(ccc(Cl)c2Cl)C(=O)/C1=N/Nc1cccc(F)c1
[1]
  MIC: < 6.25 µg/mL
[2]
  inhibition of growth at 6.25 µg/mL: 80%

## COc1ccc(N/N=C2\C(=O)Nc3c(cccc3[N+](=O)[O-])C2=O)c(C)c1
[1]
  MIC: > 6.25 µg/mL
[2]
  inhibition of growth at 6.25 µg/mL: 45%

## O=C1Nc2c(cccc2[N+](=O)[O-])C(=O)/C1=N/Nc1cccc(Cl)c1
[1]
  MIC: < 6.25 µg/mL
[2]
  inhibition of growth at 6.25 µg/mL: 82%

## CC(=O)c1ccc(N/N=C2\C(=O)Nc3c(Cl)cccc3C2=O)cc1
[1]
  MIC: > 6.25 µg/mL
[2]
  inhibition of growth at 6.25 µg/mL: 24%

## O=C1Nc2ccccc2C(=O)/C1=N/Nc1cccc(Cl)c1
[1]
  MIC: > 6.25 µg/mL
[2]
  inhibition of growth at 6.25 µg/mL: 41%

## O=C1Nc2c(Cl)cccc2C(=O)/C1=N/Nc1cccc([N+](=O)[O-])c1
[1]
  MIC: > 6.25 µg/mL
[2]
  inhibition of growth at 6.25 µg/mL: 24%

## O=C1Nc2c(Cl)cccc2C(=O)/C1=N/Nc1ccccc1Cl
[1]
  MIC: > 6.25 µg/mL
[2]
  inhibition of growth at 6.25 µg/mL: 7%

## O=C1Nc2cc([N+](=O)[O-])ccc2C(=O)/C1=N/Nc1ccc(F)cc1
[1]
  MIC: < 6.25 µg/mL
[2]
  inhibition of growth at 6.25 µg/mL: 100%

## COc1ccccc1N/N=C1\C(=O)Nc2c(cccc2[N+](=O)[O-])C1=O
[1]
  MIC: > 6.25 µg/mL
[2]
  inhibition of growth at 6.25 µg/mL: 32%

## Cc1cccc(N/N=C2\C(=O)Nc3cc(C)ccc3C2=O)c1
[1]
  MIC: < 6.25 µg/mL
[2]
  inhibition of growth at 6.25 µg/mL: 76%

## Cc1cccc(N/N=C2\C(=O)Nc3c(cccc3[N+](=O)[O-])C2=O)c1
[1]
  MIC: < 6.25 µg/mL
[2]
  inhibition of growth at 6.25 µg/mL: 95%

## O=C1Nc2cc(Cl)ccc2C(=O)/C1=N/Nc1ccc([N+](=O)[O-])cc1
[1]
  MIC: > 6.25 µg/mL
[2]
  inhibition of growth at 6.25 µg/mL: 1%

## Cc1cccc(C)c1N/N=C1\C(=O)Nc2ccc(Cl)cc2C1=O
[1]
  MIC: > 6.25 µg/mL
[2]
  inhibition of growth at 6.25 µg/mL: 13%

## COc1ccc(N/N=C2\C(=O)c3cccc([N+](=O)[O-])c3N(C)C2=O)c(C)c1
[1]
  MIC: > 6.25 µg/mL
[2]
  inhibition of growth at 6.25 µg/mL: 40%

## COc1ccc(N/N=C2\C(=O)Nc3cc(Cl)ccc3C2=O)cc1
[1]
  MIC: > 6.25 µg/mL
[2]
  inhibition of growth at 6.25 µg/mL: 4%

## O=C1Nc2c(ccc(Cl)c2Cl)C(=O)/C1=N/Nc1cccc(Cl)c1
[1]
  MIC: < 6.25 µg/mL
[2]
  inhibition of growth at 6.25 µg/mL: 82%

## O=C1Nc2cc([N+](=O)[O-])ccc2C(=O)/C1=N/Nc1cccc(Cl)c1Cl
[1]
  MIC: > 6.25 µg/mL
[2]
  inhibition of growth at 6.25 µg/mL: 21%

## Cc1ccc(N/N=C2\C(=O)Nc3c(Cl)ccc(Cl)c3C2=O)cc1
[1]
  MIC: > 6.25 µg/mL
[2]
  inhibition of growth at 6.25 µg/mL: 11%

## CN1C(=O)/C(=N\Nc2ccccc2[N+](=O)[O-])C(=O)c2ccccc21
[1]
  MIC: < 6.25 µg/mL
[2]
  inhibition of growth at 6.25 µg/mL: 94%

## O=C1Nc2cc(Cl)ccc2C(=O)/C1=N/Nc1cccc(Cl)c1
[1]
  MIC: > 6.25 µg/mL
[2]
  inhibition of growth at 6.25 µg/mL: 47%

## O=C1Nc2ccc(Cl)cc2C(=O)/C1=N/Nc1ccccc1[N+](=O)[O-]
[1]
  MIC: < 6.25 µg/mL
[2]
  inhibition of growth at 6.25 µg/mL: 64%

## CC(=O)c1ccc(N/N=C2\C(=O)Nc3c(cccc3[N+](=O)[O-])C2=O)cc1
[1]
  MIC: < 6.25 µg/mL
[2]
  inhibition of growth at 6.25 µg/mL: 89%

## O=C1Nc2c(cccc2[N+](=O)[O-])C(=O)/C1=N/Nc1ccccc1-c1ccccc1
[1]
  MIC: > 6.25 µg/mL
[2]
  inhibition of growth at 6.25 µg/mL: 35%

## Cc1cccc(N/N=C2\C(=O)Nc3c(C)cccc3C2=O)c1
[1]
  MIC: > 6.25 µg/mL
[2]
  inhibition of growth at 6.25 µg/mL: 31%

## O=C1Nc2ccc(Cl)cc2C(=O)/C1=N/Nc1ccc(Cl)cc1
[1]
  MIC: < 6.25 µg/mL
[2]
  inhibition of growth at 6.25 µg/mL: 98%

## O=C1Nc2c(Cl)ccc(Cl)c2C(=O)/C1=N/Nc1cccc(Cl)c1
[1]
  MIC: > 6.25 µg/mL
[2]
  inhibition of growth at 6.25 µg/mL: 32%

## CO[C@H]1/C=C/O[C@@]2(C)Oc3c(C)c(O)c4c(O)c(c(/C=N/N5CCN(C)CC5)c(O)c4c3C2=O)NC(=O)/C(C)=C\C=C\[C@H](C)[C@H](O)[C@@H](C)[C@@H](O)[C@@H](C)[C@H](OC(C)=O)[C@@H]1C [RIFAMPIN]
[1]
  MIC: 0.015 µg/mL (≈ 0.0182 µM)
[2]
  inhibition of growth at 6.25 µg/mL: 97%

## COc1ccc(N/N=C2\C(=O)Nc3ccc(Cl)cc3C2=O)c(C)c1
[1]
  MIC: > 6.25 µg/mL
[2]
  inhibition of growth at 6.25 µg/mL: 12%

## COc1ccc2c(c1)C(=O)/C(=N/Nc1ccccc1)C(=O)N2
[1]
  MIC: > 6.25 µg/mL
[2]
  inhibition of growth at 6.25 µg/mL: 0%
